Values of other authors as cited in patent US8545882B2, “Control release formulation containing a hydrophobic material as the sustained release agent” (Nostrum Pharmaceuticals, Inc., priority 2001, dated 2013).
Read-outs that look alike come from different tables or passages of the source. Each block holds one compound with its values, some of them ahead of it.

Legend:
[1] = 40% by weight glycerol palmitostearate, wet granulation, after 20 minutes
[2] = water
[3] = granules 200-315 microns, any of three polymers at 10 or 20% by weight

SMILES: O=C([O-])c1ccccc1O.[Na+] [sodium salicylate]
drug released in water [1]: 50%

theophylline released ([2]; 2% (w/w) wax coating, within one hour): 85%
theophylline released ([2]; 6% wax coating, in 5 minutes): 35%
theophylline released ([2]; 6% wax coating, within the first hour): 55%
theophylline released ([2]; 10% (w/w) wax coating, in 5 minutes): 28%
theophylline released ([2]; 10% (w/w) wax coating, within the first hour): 38%
SMILES: Cn1c(=O)c2[nH]cnc2n(C)c1=O [theophylline]

time in which the drug was released completely [3]: ≤ 30 min
SMILES: CC(C)Cc1ccc(C(C)C(=O)O)cc1 (stereo not shown) [ibuprofen]
